Test results as given in PubChem BioAssay (NCI).
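Briefly, cells in 96-well plates were exposed to five compound concentrations for 48 h, and endpoints were estimated by linear interpolation. GI50 marks 50% less growth. At the TGI there is no net growth.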

Legend:
Assay in all cases: NCI-60 cell line screen, 48 h
786-0 renal = system: 786-0 renal
A498 renal = system: A498 renal
A549 NSCLC = system: A549 NSCLC
ACHN renal = system: ACHN renal
BT-549 breast = system: BT-549 breast
CAKI-1 renal = system: CAKI-1 renal
CCRF-CEM leukemia = system: CCRF-CEM leukemia
COLO 205 colon = system: COLO 205 colon
DU-145 prostate = system: DU-145 prostate
EKVX NSCLC = system: EKVX NSCLC
HCC-2998 colon = system: HCC-2998 colon
HCT-116 colon = system: HCT-116 colon
HCT-15 colon = system: HCT-15 colon
HL-60(TB) leukemia = system: HL-60(TB) leukemia
HOP-62 NSCLC = system: HOP-62 NSCLC
HOP-92 NSCLC = system: HOP-92 NSCLC
HS 578T breast = system: HS 578T breast
HT29 colon = system: HT29 colon
IGROV1 ovarian = system: IGROV1 ovarian
K-562 leukemia = system: K-562 leukemia
KM12 colon = system: KM12 colon
LOX IMVI melanoma = system: LOX IMVI melanoma
M14 melanoma = system: M14 melanoma
MALME-3M melanoma = system: MALME-3M melanoma
MCF7 breast = system: MCF7 breast
MDA-MB-231 breast = system: MDA-MB-231 breast
MDA-MB-435 = system: MDA-MB-435
MOLT-4 leukemia = system: MOLT-4 leukemia
NCI-H226 lung = system: NCI-H226 lung
NCI-H23 lung = system: NCI-H23 lung
NCI-H460 lung = system: NCI-H460 lung
NCI-H522 lung = system: NCI-H522 lung
NCI/ADR-RES ovarian = system: NCI/ADR-RES ovarian
OVCAR-3 ovarian = system: OVCAR-3 ovarian
OVCAR-4 ovarian = system: OVCAR-4 ovarian
OVCAR-5 ovarian = system: OVCAR-5 ovarian
OVCAR-8 ovarian = system: OVCAR-8 ovarian
PC-3 prostate = system: PC-3 prostate
RPMI-8226 leukemia = system: RPMI-8226 leukemia
RXF 393 renal = system: RXF 393 renal
SF-268 CNS = system: SF-268 CNS
SF-295 CNS = system: SF-295 CNS
SF-539 CNS = system: SF-539 CNS
SK-MEL-2 melanoma = system: SK-MEL-2 melanoma
SK-MEL-28 melanoma = system: SK-MEL-28 melanoma
SK-MEL-5 melanoma = system: SK-MEL-5 melanoma
SK-OV-3 ovarian = system: SK-OV-3 ovarian
SN12C renal = system: SN12C renal
SNB-19 CNS = system: SNB-19 CNS
SNB-75 CNS = system: SNB-75 CNS
SR leukemia = system: SR leukemia
SW-620 colon = system: SW-620 colon
T-47D breast = system: T-47D breast
TK-10 renal = system: TK-10 renal
U251 CNS = system: U251 CNS
UACC-257 melanoma = system: UACC-257 melanoma
UACC-62 melanoma = system: UACC-62 melanoma
UO-31 renal = system: UO-31 renal

## Cc1nc2cnc(N)c(C#Cc3cncc(C(=O)Nc4ccc(CN5CCN(C)CC5)c(C(F)(F)F)c4)c3)c2nc1C
786-0 renal
  GI50: 2580 nM
  TGI: 14.8 µM
A498 renal
  GI50: 180 nM
  TGI: 1170 nM
A549 NSCLC
  GI50: 614 nM
  TGI: 5.71 µM
ACHN renal
  GI50: 564 nM
  TGI: 5.9 µM
BT-549 breast
  GI50: 2000 nM
  TGI: 11.8 µM
CAKI-1 renal
  GI50: 310 nM
  TGI: 1540 nM
CCRF-CEM leukemia
  GI50: 2120 nM
  TGI: 16.7 µM
COLO 205 colon
  GI50: 55.8 nM
  TGI: 634 nM
DU-145 prostate
  GI50: 409 nM
  TGI: 11.2 µM
EKVX NSCLC
  GI50: 739 nM
  TGI: 12.6 µM
HCC-2998 colon
  GI50: 651 nM
  TGI: 13.1 µM
HCT-116 colon
  GI50: 219 nM
  TGI: 1570 nM
HCT-15 colon
  GI50: 912 nM
  TGI: 10.9 µM
HL-60(TB) leukemia
  GI50: 138 nM
  TGI: 3.8 µM
HOP-62 NSCLC
  GI50: 738 nM
  TGI: 10.2 µM
HOP-92 NSCLC
  GI50: 64.6 nM
  TGI: 566 nM
HS 578T breast
  GI50: 541 nM
  TGI: 5.66 µM
HT29 colon
  GI50: 45.6 nM
  TGI: 2720 nM
IGROV1 ovarian
  GI50: 266 nM
  TGI: 1210 nM
K-562 leukemia
  TGI: 8.18 µM
KM12 colon
  TGI: 1440 nM
LOX IMVI melanoma
  GI50: 101 nM
  TGI: 1050 nM
M14 melanoma
  GI50: 90.3 nM
  TGI: 339 nM
MALME-3M melanoma
  GI50: 33.9 nM
  TGI: 163 nM
MCF7 breast
  GI50: 161 nM
  TGI: 4.04 µM
MDA-MB-231 breast
  GI50: 209 nM
  TGI: 2130 nM
MDA-MB-435
  GI50: 140 nM
  TGI: 6 µM
MOLT-4 leukemia
  GI50: 859 nM
  TGI: 18.3 µM
NCI-H226 lung
  GI50: 188 nM
  TGI: 2610 nM
NCI-H23 lung
  GI50: 342 nM
  TGI: 8.67 µM
NCI-H460 lung
  GI50: 478 nM
  TGI: 11.7 µM
NCI-H522 lung
  GI50: 276 nM
  TGI: 3.86 µM
NCI/ADR-RES ovarian
  GI50: 7.56 µM
  TGI: 23.8 µM
OVCAR-3 ovarian
  GI50: 824 nM
  TGI: 9.66 µM
OVCAR-4 ovarian
  GI50: 119 nM
  TGI: 6.17 µM
OVCAR-5 ovarian
  GI50: 304 nM
  TGI: 11 µM
OVCAR-8 ovarian
  GI50: 1430 nM
  TGI: 13.8 µM
PC-3 prostate
  GI50: 1480 nM
  TGI: 17.4 µM
RPMI-8226 leukemia
  GI50: 1650 nM
  TGI: 8.51 µM
RXF 393 renal
  GI50: 515 nM
  TGI: 1930 nM
SF-268 CNS
  GI50: 640 nM
  TGI: 10.3 µM
SF-295 CNS
  GI50: 3.02 µM
  TGI: 19.6 µM
SF-539 CNS
  GI50: 313 nM
  TGI: 3.69 µM
SK-MEL-2 melanoma
  GI50: 187 nM
  TGI: 817 nM
SK-MEL-28 melanoma
  GI50: 166 nM
  TGI: 1320 nM
SK-MEL-5 melanoma
  GI50: 748 nM
  TGI: 6.07 µM
SK-OV-3 ovarian
  GI50: 1630 nM
  TGI: 9.15 µM
SN12C renal
  GI50: 381 nM
  TGI: 11.8 µM
SNB-19 CNS
  GI50: 4.36 µM
  TGI: 16.9 µM
SNB-75 CNS
  GI50: 1350 nM
  TGI: 3.39 µM
SR leukemia
  GI50: 1670 nM
  TGI: 10.9 µM
SW-620 colon
  GI50: 279 nM
  TGI: 3.21 µM
T-47D breast
  GI50: 3.35 µM
  TGI: 26 µM
TK-10 renal
  GI50: 496 nM
  TGI: 3.2 µM
U251 CNS
  GI50: 2520 nM
  TGI: 19.5 µM
UACC-257 melanoma
  GI50: 189 nM
  TGI: 1740 nM
UACC-62 melanoma
  GI50: 116 nM
  TGI: 1070 nM
UO-31 renal
  GI50: 1280 nM
  TGI: 5.67 µM

## CC(C)=C1C(=O)C[C@]2(C)C[C@H]3/C(=C(/C)CCC12)CC[C@@]3(C)O (stereo not given in full)
786-0 renal
  TGI: > 50 µM
A498 renal
  TGI: > 50000 nM
A549 NSCLC
  TGI: > 50 µM
ACHN renal
  TGI: > 50 µM
BT-549 breast
  TGI: > 50 µM
CAKI-1 renal
  TGI: > 50000 nM
CCRF-CEM leukemia
  TGI: > 50 µM
COLO 205 colon
  TGI: > 50000 nM
DU-145 prostate
  TGI: > 50 µM
EKVX NSCLC
  TGI: > 50 µM
HCC-2998 colon
  TGI: > 50 µM
HCT-116 colon
  TGI: > 50000 nM
HCT-15 colon
  TGI: > 50 µM
HL-60(TB) leukemia
  TGI: 28.6 µM
HOP-62 NSCLC
  TGI: > 50 µM
HOP-92 NSCLC
  TGI: > 50000 nM
HS 578T breast
  TGI: > 50 µM
HT29 colon
  TGI: > 50000 nM
IGROV1 ovarian
  TGI: > 50000 nM
K-562 leukemia
  TGI: > 50 µM
KM12 colon
  TGI: > 50000 nM
LOX IMVI melanoma
  TGI: > 50000 nM
M14 melanoma
  TGI: > 50000 nM
MCF7 breast
  TGI: > 50 µM
MDA-MB-231 breast
  TGI: > 50000 nM
MDA-MB-435
  TGI: > 50 µM
MOLT-4 leukemia
  TGI: > 50 µM
NCI-H226 lung
  TGI: > 50000 nM
NCI-H23 lung
  TGI: > 50 µM
NCI-H522 lung
  TGI: > 50 µM
NCI/ADR-RES ovarian
  TGI: > 50 µM
OVCAR-3 ovarian
  TGI: > 50 µM
OVCAR-4 ovarian
  TGI: > 50 µM
OVCAR-5 ovarian
  TGI: > 50 µM
OVCAR-8 ovarian
  TGI: > 50 µM
PC-3 prostate
  TGI: > 50 µM
RPMI-8226 leukemia
  TGI: > 50 µM
RXF 393 renal
  TGI: > 50000 nM
SF-268 CNS
  TGI: > 50 µM
SF-295 CNS
  TGI: > 50 µM
SF-539 CNS
  TGI: > 50 µM
SK-MEL-2 melanoma
  TGI: > 50000 nM
SK-MEL-28 melanoma
  TGI: > 50000 nM
SK-MEL-5 melanoma
  TGI: > 50 µM
SK-OV-3 ovarian
  TGI: > 50 µM
SN12C renal
  TGI: > 50 µM
SNB-19 CNS
  TGI: > 50 µM
SNB-75 CNS
  TGI: > 50 µM
SR leukemia
  TGI: > 50 µM
SW-620 colon
  TGI: > 50 µM
T-47D breast
  TGI: > 50 µM
TK-10 renal
  TGI: > 50 µM
U251 CNS
  TGI: > 50 µM
UACC-257 melanoma
  TGI: > 50000 nM
UACC-62 melanoma
  TGI: > 50000 nM
UO-31 renal
  TGI: > 50 µM
